Source: patent publication US20230041563A1, “N-(1,3,4-OXADIAZOL-2-YL)ARYLCARBOXAMIDES OR SALTS THEREOF, PREPARATION METHODS, HERBICIDAL COMPOSITIONS AND USES THEREOF” (priority 2018, published 2023)
Like-named read-outs stand apart in the source and are kept apart here.

Tested on: weeds
Experiment: Actual control effects and combined effects of mixtures of active ingredients (i) and (ii), stem-leaf treatment, Gowing method
Type: in vivo
Method: According to the actual control effect and the property of the herbicides, the balance of the formula and other factors, the optimal ratio was determined. In the calculation formula: X represents the fresh weight inhibition rate when the active ingredient (i) is used in an amount of P; and Y represents the fresh weight inhibition rate when the active ingredient (ii) is used in an amount of Q. The statistical results are shown in Tables 9-11 below.

[1] = Monochoria vaginalis, (ii) 3 g a.i./mu, 20 days
[2] = Pontederia vaginalis, 480 h, Monochoria vaginalis, (ii) 3 g a.i./mu, stem-leaf treatment, 20 days, read-out: Control effect of (ii) alone at corresponding dose
[3] = Pontederia vaginalis, 480 h, Monochoria vaginalis, (ii) 5 g a.i./mu, stem-leaf treatment, 20 days, read-out: Control effect of (ii) alone at corresponding dose
[4] = 480 h, Cyperus difformis, (ii) 1.8 g a.i./mu, 20 days, read-out: Control effect of (ii) alone at corresponding dose
[5] = 480 h, Cyperus difformis, (ii) 15 g a.i./mu, stem-leaf treatment, 20 days, read-out: Control effect of (ii) alone at corresponding dose
[6] = Cyperus difformis, (ii) 15 g a.i./mu, 20 days
[7] = Monochoria vaginalis, (ii) 5 g a.i./mu, 20 days
[8] = Monochoria vaginalis, (ii) 1 g a.i./mu, 20 days
[9] = Cyperus difformis, (ii) 1 g a.i./mu, 20 days
[10] = 480 h, Echinochloa phyllopogon, (ii) 3 g a.i./mu, stem-leaf treatment, 20 days, read-out: Control effect of (ii) alone at corresponding dose
[11] = Echinochloa phyllopogon, (ii) 3 g a.i./mu, 20 days
[12] = Echinochloa phyllopogon, (ii) 0.6 g a.i./mu, 20 days
[13] = Echinochloa phyllopogon, (ii) 0.6 g a.i./mu, stem-leaf treatment, 20 days
[14] = Echinochloa phyllopogon, (ii) 8 g a.i./mu, 20 days
[15] = 480 h, Echinochloa phyllopogon, (ii) 15 g a.i./mu, 20 days, read-out: Control effect of (ii) alone at corresponding dose
[16] = 480 h, Echinochloa phyllopogon, (ii) 15 g a.i./mu, stem-leaf treatment, 20 days, read-out: Control effect of (ii) alone at corresponding dose
[17] = Echinochloa phyllopogon, (ii) 15 g a.i./mu, 20 days
[18] = Echinochloa phyllopogon, (ii) 3 g a.i./mu, stem-leaf treatment, 20 days
[19] = Pontederia vaginalis, 480 h, read-out: Control effect of (ii) alone at corresponding dose

Nc1c(Cl)c(F)nc(OCC(=O)O)c1Cl [Fluroxypyr]
Control effect of (ii) alone at corresponding dose [1]: 60.3% | pest or weed control at 45 g/ha [2]: 60.3% | pest or weed control at 60 g/ha (Pontederia vaginalis, 480 h, Monochoria vaginalis, (ii) 4 g a.i./mu, 20 days, read-out: Control effect of (ii) alone at corresponding dose): 70.4% | pest or weed control at 75 g/ha [3]: 73.4%

CCC(=O)Nc1ccc(Cl)c(Cl)c1 [Propanil]
pest or weed control at 27 g/ha [4]: 9.2% | pest or weed control at […] [5]: 46.2% | Control effect of (ii) alone at corresponding dose [6]: 46.2%

CCC1(CC2(c3cccc(Cl)c3)CO2)C(=O)c2ccccc2C1=O (stereo not shown) [Indanofan]
Control effect of (ii) alone at corresponding dose [7]: 20.8% | pest or weed control at 75 g/ha [3]: 20.8% | pest or weed control at 180 g/ha (Pontederia vaginalis, 480 h, Monochoria vaginalis, (ii) 12 g a.i./mu, 20 days, read-out: Control effect of (ii) alone at corresponding dose): 63.1%

COc1nc(OC)nc(C(=O)c2cccc(F)c2N(C)S(=O)(=O)C(F)F)n1 [Triafamone]
Control effect of (ii) alone at corresponding dose (Monochoria vaginalis, (ii) 0.5 g a.i./mu, 20 days): 16.3% | Control effect of (ii) alone at corresponding dose (Monochoria vaginalis, (ii) 0.5 g a.i./mu, stem-leaf treatment, 20 days): 16.3% | Control effect of (ii) alone at corresponding dose [8]: 29.6% | Control effect of (ii) alone at corresponding dose (Monochoria vaginalis, (ii) 1 g a.i./mu, stem-leaf treatment, 20 days): 29.6%

CS(=O)(=O)c1ccc(C(=O)C2C(=O)CCCC2=O)c(Cl)c1COCC1CCCO1 (stereo not shown) [Tefuryltrione]
Control effect of (ii) alone at corresponding dose [9]: 37.4% | Control effect of (ii) alone at corresponding dose (Cyperus difformis, (ii) 1 g a.i./mu, stem-leaf treatment, 20 days): 37.4% | Control effect of (ii) alone at corresponding dose (Cyperus difformis, (ii) 1.8 g a.i./mu, 20 days): 63.2%

CSc1nnc(C(C)(C)C)c(=O)n1N [Metribuzin]
pest or weed control at 9 g/ha (480 h, Echinochloa phyllopogon, (ii) 0.6 g a.i./mu, 20 days, read-out: Control effect of (ii) alone at corresponding dose): 9.1% | pest or weed control at 45 g/ha [10]: 32.3% | Control effect of (ii) alone at corresponding dose [11]: 32.3%

CCCCCCCCSC(=O)Oc1cc(Cl)nnc1-c1ccccc1 [Pyridate]
pest or weed control at 27 g/ha [4]: 12.9% | pest or weed control at […] [5]: 53.2% | Control effect of (ii) alone at corresponding dose [6]: 53.2%

C[C@@H](Oc1ccc(Oc2nc3ccc(Cl)cc3o2)cc1)C(=O)N(C)c1ccccc1F [Metamifop]
Control effect of (ii) alone at corresponding dose [12]: 6.8% | Control effect of (ii) alone at corresponding dose [13]: 6.8% | Control effect of (ii) alone at corresponding dose [14]: 60.9% | Control effect of (ii) alone at corresponding dose (Echinochloa phyllopogon, (ii) 8 g a.i./mu, stem-leaf treatment, 20 days): 60.9%

COc1cc(OC)nc(Oc2cccc(Oc3nc(OC)cc(OC)n3)c2C(=O)O)n1 [Bispyribac-sodium]
pest or weed control at 9 g/ha (480 h, Cyperus difformis, (ii) 0.6 g a.i./mu, 20 days, read-out: Control effect of (ii) alone at corresponding dose): 39.5% | pest or weed control at 15 g/ha (480 h, Cyperus difformis, (ii) 1 g a.i./mu, stem-leaf treatment, 20 days, read-out: Control effect of (ii) alone at corresponding dose): 70.4% | Control effect of (ii) alone at corresponding dose [9]: 70.4%

Cc1ccccc1CO[C@@H]1C[C@@]2(C(C)C)CC[C@]1(C)O2 (racemic) [Cinmethylin]
pest or weed control at 45 g/ha [10]: 13.2% | pest or weed control at […] [15]: 54.5% | Control effect of (ii) alone at corresponding dose [11]: 13.2%

CCc1cccc(C)c1N(C(=O)CCl)C(C)COC (stereo not shown) [Metolachlor]
pest or weed control at 45 g/ha (480 h, Digitaria sanguinalis, (ii) 3 g a.i./mu, stem-leaf treatment, 20 days, read-out: Control effect of (ii) alone at corresponding dose): 15.3% | pest or weed control at 45 g/ha [10]: 7.8% | pest or weed control at […] [15]: 15.3% | Control effect of (ii) alone at corresponding dose [11]: 7.8%

CCCc1ccc2nc(Cl)c(S(=O)(=O)NC(=O)Nc3nc(OC)cc(OC)n3)n2n1 [Propyrisulfuron]
Control effect of (ii) alone at corresponding dose (Cyperus difformis, (ii) 0.6 g a.i./mu, 20 days): 19.5% | Control effect of (ii) alone at corresponding dose (Cyperus difformis, (ii) 1.5 g a.i./mu, 20 days): 46.3% | Control effect of (ii) alone at corresponding dose (Cyperus difformis, (ii) 1.5 g a.i./mu, stem-leaf treatment, 20 days): 46.3%

O=C(O)c1c(Cl)ccc2cc(Cl)cnc12 [Quinclorac]
pest or weed control at 45 g/ha [10]: 35.2% | pest or weed control at […] [16]: 52.9% | Control effect of (ii) alone at corresponding dose [11]: 35.2% | Control effect of (ii) alone at corresponding dose [17]: 52.9%

COc1c(Cl)ccc(Cl)c1C(=O)O [Dicamba]
Control effect of (ii) alone at corresponding dose [1]: 50.9% | Control effect of (ii) alone at corresponding dose [7]: 70.2% | pest or weed control at 45 g/ha [2]: 50.9% | pest or weed control at 75 g/ha [3]: 70.2%

COc1c(Cl)ccc(-c2nc(C(=O)OCc3ccccc3)c(Cl)c(N)c2F)c1F [Florpyrauxifen-benzyl]
Control effect of (ii) alone at corresponding dose [12]: 21.5% | Control effect of (ii) alone at corresponding dose [13]: 21.5% | Control effect of (ii) alone at corresponding dose [11]: 70.5% | Control effect of (ii) alone at corresponding dose [18]: 70.5%

Cn1nc(C(F)(F)F)c(CS(=O)(=O)C2=NOC(C)(C)C2)c1OC(F)F [Pyroxasulfone]
Control effect of (ii) alone at corresponding dose (Monochoria vaginalis, (ii) 9 g a.i./mu, 20 days): 34.5% | pest or weed control at […] (Pontederia vaginalis, 480 h, Monochoria vaginalis, (ii) 0.5 g a.i./mu, 20 days, read-out: Control effect of (ii) alone at corresponding dose): 6.3% | pest or weed control at 135 g/ha (Pontederia vaginalis, 480 h, Monochoria vaginalis, (ii) 9 g a.i./mu, stem-leaf treatment, 20 days, read-out: Control effect of (ii) alone at corresponding dose): 34.5%

CCOC(=O)c1cnn(C)c1S(=O)(=O)NC(=O)Nc1nc(OC)cc(OC)n1 [Pyrazosulfuron-ethyl]
Control effect of (ii) alone at corresponding dose [8]: 75.6% | pest or weed control at 9 g/ha (Pontederia vaginalis, 480 h, Monochoria vaginalis, (ii) 0.6 g a.i./mu, 20 days, read-out: Control effect of (ii) alone at corresponding dose): 54.5% | pest or weed control at 15 g/ha (Pontederia vaginalis, 480 h, Monochoria vaginalis, (ii) 1 g a.i./mu, stem-leaf treatment, 20 days, read-out: Control effect of (ii) alone at corresponding dose): 75.6%

CCOC(=O)C(Cl)Cc1cc(-n2nc(C)n(C(F)F)c2=O)c(F)cc1Cl (stereo not shown) [Carfentrazone-ethyl]
pest or weed control at 3 g/ha (480 h, Echinochloa phyllopogon, (ii) 0.2 g a.i./mu, stem-leaf treatment, 20 days, read-out: Control effect of (ii) alone at corresponding dose): 5.3% | pest or weed control at 120 g/ha (480 h, Echinochloa phyllopogon, (ii) 8 g a.i./mu, stem-leaf treatment, 20 days, read-out: Control effect of (ii) alone at corresponding dose): 73.6% | Control effect of (ii) alone at corresponding dose (Echinochloa phyllopogon, (ii) 0.2 g a.i./mu, 20 days): 5.3% | Control effect of (ii) alone at corresponding dose [14]: 73.6%

CC(C)N1C(=O)c2ccccc2NS1(=O)=O [Bentazone]
pest or weed control at 27 g/ha [4]: 18.2% | pest or weed control at 135 g/ha (480 h, Cyperus difformis, (ii) 9 g a.i./mu, stem-leaf treatment, 20 days, read-out: Control effect of (ii) alone at corresponding dose): 40.4% | Control effect of (ii) alone at corresponding dose (Cyperus difformis, (ii) 9 g a.i./mu, 20 days): 40.4%

Oxadiargyl
Control effect of (ii) alone at corresponding dose [12]: 3.4% | Control effect of (ii) alone at corresponding dose [13]: 3.4% | Control effect of (ii) alone at corresponding dose [17]: 35.3% | Control effect of (ii) alone at corresponding dose (Echinochloa phyllopogon, (ii) 15 g a.i./mu, stem-leaf treatment, 20 days): 35.3%

O=C1C(Cl)C(CCl)CN1c1cccc(C(F)(F)F)c1 (stereo not shown) [Fluorochloridone]
Control effect of (ii) alone at corresponding dose [11]: 9.1% | Control effect of (ii) alone at corresponding dose [18]: 9.1% | Control effect of (ii) alone at corresponding dose (Echinochloa phyllopogon, (ii) 30 g a.i./mu, 20 days): 52.3%

CCCOP(=S)(OCCC)SCC(=O)N1CCCCC1C (stereo not shown) [Piperophos]
Control effect of (ii) alone at corresponding dose [1]: 9.9% | pest or weed control at 45 g/ha [19]: 9.9% | pest or weed control at 450 g/ha [19]: 41.2%

CN(C(=O)COc1nc2ccccc2s1)c1ccccc1 [Mefenacet]
pest or weed control at 45 g/ha [10]: 19.2% | pest or weed control at […] [16]: 46.7% | Control effect of (ii) alone at corresponding dose [11]: 19.2% | Control effect of (ii) alone at corresponding dose [17]: 46.7%
